Measurements taken from the supplement of paper PMC11451515.

Tested on: P12-Ichikawa
Test: cell viability relative to DMSO control; higher = less cytotoxic
Details: 48 h
Summary of the method: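 Viability is expressed as a percentage of DMSO wells within each plate, and cell-free wells serve as background. Seeding densities in the 1536-well plates (5 μl) were 500 cells/well for NOMO1 or SEM leukemia cells and 1000 cells/well for P12-Ichikawa. Each line was adapted for at least four passages in each medium. Library compounds in DMSO were pin-dosed at 47 μM to 0.79 nM (11 points, threefold), and CellTiter-Glo One luminescence was read after 48 h at 37°C.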

[1] = HPLM + 10% dialyzed FBS, 0.000781 µM
[2] = HPLM + 10% dialyzed FBS, 0.00234 µM
[3] = HPLM + 10% dialyzed FBS, 0.00702 µM
[4] = HPLM + 10% dialyzed FBS, 0.0211 µM
[5] = HPLM + 10% dialyzed FBS, 0.0632 µM
[6] = HPLM + 10% dialyzed FBS, 0.19 µM
[7] = HPLM + 10% dialyzed FBS, 0.569 µM
[8] = HPLM + 10% dialyzed FBS, 1.71 µM
[9] = HPLM + 10% dialyzed FBS, 5.12 µM
[10] = HPLM + 10% dialyzed FBS, 15.4 µM
[11] = HPLM + 10% dialyzed FBS, 46.1 µM
[12] = RPMI 5 mM glucose + 10% FBS, 0.000781 µM
[13] = RPMI 5 mM glucose + 10% FBS, 0.00234 µM
[14] = RPMI 5 mM glucose + 10% FBS, 0.00702 µM
[15] = RPMI 5 mM glucose + 10% FBS, 0.0211 µM
[16] = RPMI 5 mM glucose + 10% FBS, 0.0632 µM
[17] = RPMI 5 mM glucose + 10% FBS, 0.19 µM
[18] = RPMI 5 mM glucose + 10% FBS, 0.569 µM
[19] = RPMI 5 mM glucose + 10% FBS, 1.71 µM
[20] = RPMI 5 mM glucose + 10% FBS, 5.12 µM
[21] = RPMI 5 mM glucose + 10% FBS, 15.4 µM
[22] = RPMI 5 mM glucose + 10% FBS, 46.1 µM
[23] = RPMI 5 mM glucose + 10% dialyzed FBS, 0.000781 µM
[24] = RPMI 5 mM glucose + 10% dialyzed FBS, 0.00234 µM
[25] = RPMI 5 mM glucose + 10% dialyzed FBS, 0.00702 µM
[26] = RPMI 5 mM glucose + 10% dialyzed FBS, 0.0211 µM
[27] = RPMI 5 mM glucose + 10% dialyzed FBS, 0.0632 µM
[28] = RPMI 5 mM glucose + 10% dialyzed FBS, 0.19 µM
[29] = RPMI 5 mM glucose + 10% dialyzed FBS, 0.569 µM
[30] = RPMI 5 mM glucose + 10% dialyzed FBS, 1.71 µM
[31] = RPMI 5 mM glucose + 10% dialyzed FBS, 5.12 µM
[32] = RPMI 5 mM glucose + 10% dialyzed FBS, 15.4 µM
[33] = RPMI 5 mM glucose + 10% dialyzed FBS, 46.1 µM

| Compound | cell viability [1] [%] | cell viability [2] [%] | cell viability [3] [%] | cell viability [4] [%] | cell viability [5] [%] | cell viability [6] [%] | cell viability [7] [%] | cell viability [8] [%] | cell viability [9] [%] | cell viability [10] [%] | cell viability [11] [%] | cell viability [12] [%] | cell viability [13] [%] | cell viability [14] [%] | cell viability [15] [%] | cell viability [16] [%] | cell viability [17] [%] | cell viability [18] [%] | cell viability [19] [%] | cell viability [20] [%] | cell viability [21] [%] | cell viability [22] [%] | cell viability [23] [%] | cell viability [24] [%] | cell viability [25] [%] | cell viability [26] [%] | cell viability [27] [%] | cell viability [28] [%] | cell viability [29] [%] | cell viability [30] [%] | cell viability [31] [%] | cell viability [32] [%] | cell viability [33] [%] |
| --- | --- | --- | --- | --- | --- | --- | --- | --- | --- | --- | --- | --- | --- | --- | --- | --- | --- | --- | --- | --- | --- | --- | --- | --- | --- | --- | --- | --- | --- | --- | --- | --- | --- |
| Nc1nc(Nc2ccc([S+](N)(=O)[O-])cc2)nn1C(=O)c1c(F)cccc1F | 104 | 109 | 103 | 106 | 112 | 110 | 106 | 112 | 90.7 | 101 | 21.5 | 107 | 106 | 110 | 113 | 104 | 105 | 111 | 101 | 83.7 | 81.7 | 23.1 | 111 | 106 | 105 | 107 | 114 | 115 | 109 | 108 | 84.9 | 86.6 | 24.3 |
| OC1=CC2=C(C(=O)\C=C(/O2)C3=CC=CC=C3)C(=C1O)O | 114 | 110 | 120 | 113 | 113 | 106 | 111 | 109 | 64.9 | 9.59 | 10.4 | 117 | 112 | 104 | 118 | 120 | 111 | 117 | 116 | 114 | 13.3 | 12 | 113 | 117 | 120 | 112 | 111 | 110 | 112 | 118 | 108 | 23.7 | 23.2 |
| CCCNCC(O)COc1ccccc1C(=O)CCc1ccccc1 (stereo not drawn) | 101 | 98.9 | 107 | 103 | 111 | 106 | 114 | 112 | 118 | 114 | 115 | 112 | 105 | 110 | 116 | 114 | 108 | 113 | 115 | 123 | 128 | 110 | 93.4 | 103 | 98.1 | 103 | 102 | 113 | 114 | 113 | 112 | 106 | 98.4 |
| C[N]1N=CC2=C1C=C(C(=C2)OC3=CC=C(NC(=O)\C4=C\C=C(\C)N(C4=O)C5=CC=C(F)C=C5)C=C3F)C6=C[NH]N=C6 | 99.5 | 113 | 117 | 114 | 114 | 127 | 123 | 104 | 78.1 | 12 | 8.97 | 104 | 109 | 115 | 117 | 127 | 130 | 130 | 128 | 78.9 | 16.1 | 10.5 | 119 | 123 | 130 | 125 | 124 | 138 | 129 | 128 | 90.2 | 26.6 | 16.3 |
| CCCOc1ccc2[nH]c(NC(=O)OC)nc2c1 | 125 | 122 | 107 | 99.4 | 54.5 | 35.3 | 17.2 | 21.8 | 25.3 | 18.8 | 23.2 |  |  |  |  |  |  |  |  |  |  |  |  |  |  |  |  |  |  |  |  |  |  |
| N#CC1(c2ccc(NC(=O)c3cccnc3NCc3ccncc3)cc2)CCCC1 | 120 | 123 | 113 | 116 | 116 | 110 | 108 | 104 | 106 | 77.8 | 102 | 119 | 108 | 123 | 107 | 122 | 111 | 113 | 109 | 102 | 110 | 98.9 | 118 | 122 | 115 | 109 | 113 | 114 | 103 | 113 | 103 | 96.3 | 90.8 |
| C[C@H]1[C@H](O)O[C@@H]2O[C@@]3(C)CC[C@H]4[C@H](C)CC[C@@H]1[C@@]24OO3 | 91.4 | 95 | 99.8 | 98.6 | 91.4 | 97.9 | 101 | 87.6 | 54.7 | 29.4 | 22.5 | 90.1 | 92.9 | 83.4 | 94 | 89.9 | 91.2 | 87.9 | 70.4 | 33.9 | 16.8 | 14.6 | 82.7 | 90.6 | 87.1 | 87.7 | 87.2 | 87 | 84 | 61.6 | 36.5 | 26.2 | 24.3 |
| CCCC(CCC)C(=O)[O-] | 87.4 | 96.6 | 103 | 102 | 106 | 104 | 102 | 103 | 109 | 105 | 101 | 88.6 | 103 | 105 | 110 | 115 | 119 | 105 | 108 | 105 | 105 | 94.8 | 94.2 | 102 | 102 | 114 | 112 | 107 | 104 | 101 | 107 | 106 | 96.5 |
| Clc1ccccc1C(c1ccccc1)(c1ccccc1)n1cccn1 | 123 | 134 | 119 | 129 | 125 | 130 | 122 | 126 | 128 | 116 | 114 |  |  |  |  |  |  |  |  |  |  |  |  |  |  |  |  |  |  |  |  |  |  |
